Measured values reported in ChEMBL document CHEMBL4813989, “Design, synthesis, and biological evaluation of nitroisoxazole-containing spiro[pyrrolidin-oxindole] derivatives as novel glutathione peroxidase 4/mouse double minute 2 dual inhibitors that inhibit breast adenocarcinoma cell proliferation” (Eur J Med Chem, 2021).
pIC50, pKi: −log10 of the molar value. The source made the active and inactive calls. The rule behind the calls is not given here.

Tests used:
MCF7 [1] = experiment: Antiproliferative activity against human MCF7 cells assessed as reduction in cell growth incubated for 48 hrs by CCK8 assay; details: MCF7, 48 h
MCF7 [2] = experiment: Antiproliferative activity against human MCF7 cells assessed as reduction in cell growth incubated for 48 hrs in presence of Fer-1 by CCK8 assay; details: MCF7, 48 h
MCF-10A = experiment: Cytotoxicity against human MCF-10A cells assessed as reduction in cell viability incubated for 48 hrs by CCK8 assay; assay type: cell-based
[3] = target: E3 ubiquitin-protein ligase Mdm2 (Homo sapiens, UniProt Q00987); experiment: Inhibition of MDM2 (unknown origin) using peptide as substrate incubated for 30 mins by fluorescence polarization assay
MCF7 [4] = experiment: Induction of apoptosis in human MCF7 cells assessed as increase in cleaved caspase-9 level at 2 uM incubated for 48 hrs by Western blot analysis; assay type: functional, cell-based
[5] = target: T1, Phospholipid hydroperoxide glutathione peroxidase GPX4 (Homo sapiens) (UniProt P36969); experiment: Inhibition of GPX4 in human MCF7 cells assessed as increase in GPX4 degradation incubated for 48 hrs by Western blot analysis; assay type: cell-based; details: dose 0.1-2 µM
T1 sequence (whole entry): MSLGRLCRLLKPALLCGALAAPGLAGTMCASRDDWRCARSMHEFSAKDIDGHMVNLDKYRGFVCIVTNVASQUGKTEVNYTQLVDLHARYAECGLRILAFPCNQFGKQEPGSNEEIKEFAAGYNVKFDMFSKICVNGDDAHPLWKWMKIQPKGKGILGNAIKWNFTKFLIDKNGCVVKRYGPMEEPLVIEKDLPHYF

MCF7 [6] = experiment: Induction of apoptosis in human MCF7 cells at 0.1 to 1 uM incubated for 48 hrs by annexin-V-FITC and PI staining based flow cytometry analysis; assay type: functional, cell-based; details: dose 0.1-1 µM
MCF7 [7] = experiment: Induction of apoptosis in human MCF7 cells at 0.1 to 1 uM incubated for 48 hrs in presence of Fer-1 by annexin-V-FITC and PI staining based flow cytometry analysis; assay type: functional, cell-based; details: dose 0.1-1 µM

Chain of E3 ubiquitin-protein ligase Mdm2 (Q00987 whole entry): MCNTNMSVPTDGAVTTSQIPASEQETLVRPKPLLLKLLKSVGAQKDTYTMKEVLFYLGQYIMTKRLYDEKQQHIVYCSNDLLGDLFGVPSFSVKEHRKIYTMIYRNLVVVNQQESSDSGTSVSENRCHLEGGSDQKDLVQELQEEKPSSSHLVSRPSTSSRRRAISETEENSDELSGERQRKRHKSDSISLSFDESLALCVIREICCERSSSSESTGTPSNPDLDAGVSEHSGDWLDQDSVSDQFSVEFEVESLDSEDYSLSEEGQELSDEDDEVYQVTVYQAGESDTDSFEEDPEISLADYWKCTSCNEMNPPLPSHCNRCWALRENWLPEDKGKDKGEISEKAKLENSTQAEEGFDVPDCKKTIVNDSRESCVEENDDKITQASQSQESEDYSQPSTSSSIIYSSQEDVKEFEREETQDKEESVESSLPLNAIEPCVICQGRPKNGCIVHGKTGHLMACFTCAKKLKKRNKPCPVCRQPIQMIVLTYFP

Structure (SMILES)	pIC50 (MCF7 [1])	pIC50 (MCF7 [2])	Activity (MCF-10A)	pKi [3]	Activity (MCF7 [4])	inhibition [5]	Activity (MCF7 [6])	Activity (MCF7 [7])
Cc1onc(C(=O)N2CCN(C(c3ccc(Cl)cc3)c3ccc(Cl)cc3)CC2)c1[N+](=O)[O-]	7.12	< 4.70	–	–	–	–	–	–
Cc1noc([C@@H]2[C@@H](c3ccc(C(C)C)cc3)[C@H](C(F)(F)F)N[C@@]23C(=O)Nc2ccccc23)c1[N+](=O)[O-]	5.55	< 4.70	Non-Toxic	–	–	–	–	–
Cc1ccccc1[C@H]1[C@H](C(F)(F)F)N[C@@]2(C(=O)Nc3ccccc32)[C@@H]1c1onc(C)c1[N+](=O)[O-]	5.46	< 4.70	Non-Toxic	< 5.00	–	–	–	–
Cc1noc([C@@H]2[C@@H](c3ccccc3Br)[C@H](C(F)(F)F)N[C@@]23C(=O)Nc2ccccc23)c1[N+](=O)[O-]	5.33	< 4.70	Non-Toxic	< 5.00	–	–	–	–
COc1ccccc1[C@H]1[C@H](C(F)(F)F)N[C@@]2(C(=O)Nc3ccccc32)[C@@H]1c1onc(C)c1[N+](=O)[O-]	5.34	< 4.70	Non-Toxic	< 5.00	–	–	–	–
Cc1noc([C@@H]2[C@@H](c3ccc([N+](=O)[O-])cc3)[C@H](C(F)(F)F)N[C@@]23C(=O)Nc2ccccc23)c1[N+](=O)[O-]	5.27	< 4.70	Non-Toxic	–	–	–	–	–
COc1ccc([C@H]2[C@H](C(F)(F)F)N[C@@]3(C(=O)Nc4ccccc43)[C@@H]2c2onc(C)c2[N+](=O)[O-])cc1OC	5.38	< 4.70	Non-Toxic	–	–	–	–	–
Cc1noc([C@@H]2[C@@H](c3ccc(Cl)cc3)[C@H](C(F)(F)F)N[C@@]23C(=O)Nc2ccccc23)c1[N+](=O)[O-]	5.94	< 4.70	Non-Toxic	–	–	–	–	–
Cc1ccc([C@H]2[C@H](C(F)(F)F)N[C@@]3(C(=O)Nc4ccccc43)[C@@H]2c2onc(C)c2[N+](=O)[O-])cc1	5.55	4.73	Non-Toxic	–	–	–	–	–
COc1ccc(C2=NC(c3ccc(Cl)cc3)C(c3ccc(Cl)cc3)N2C(=O)N2CCNC(=O)C2)c(OC(C)C)c1 (stereo not drawn)	4.83	4.80	–	–	Active	inactive	–	–
Cc1noc([C@@H]2[C@@H](c3ccc(Cl)c(Cl)c3)[C@H](C(F)(F)F)N[C@@]23C(=O)Nc2ccccc23)c1[N+](=O)[O-]	5.49	< 4.70	Non-Toxic	–	–	–	–	–
Cc1noc([C@@H]2[C@@H](c3ccc(F)cc3)[C@H](C(F)(F)F)N[C@@]23C(=O)Nc2ccccc23)c1[N+](=O)[O-]	6.26	4.76	Non-Toxic	–	–	–	–	–
C=CCN1C(=O)[C@@]2(N[C@@H](C(F)(F)F)[C@H](c3ccccc3)[C@H]2c2onc(C)c2[N+](=O)[O-])c2ccccc21	5.47	< 4.70	Non-Toxic	< 5.00	–	–	–	–
Cc1noc([C@@H]2[C@@H](c3cccc4ccccc34)[C@H](C(F)(F)F)N[C@@]23C(=O)Nc2ccccc23)c1[N+](=O)[O-]	5.14	< 4.70	Non-Toxic	–	–	–	–	–
Cc1noc([C@@H]2[C@@H](c3ccccc3)[C@H](C(F)(F)F)N[C@@]23C(=O)Nc2cc(Br)ccc23)c1[N+](=O)[O-]	6.77	4.86	Non-Toxic	–	–	–	Active	Active
Cc1ccc2c(c1)[C@]1(N[C@@H](C(F)(F)F)[C@H](c3ccccc3)[C@H]1c1onc(C)c1[N+](=O)[O-])C(=O)N2	5.31	4.74	Non-Toxic	–	–	–	–	–

Structure (SMILES)	pIC50 (MCF7 [1])	pIC50 (MCF7 [2])	Activity (MCF-10A)	pKi [3]	Activity (MCF7 [4])	inhibition [5]	Activity (MCF7 [6])	Activity (MCF7 [7])
Cc1noc([C@@H]2[C@@H](c3cccc(Br)c3)[C@H](C(F)(F)F)N[C@@]23C(=O)Nc2ccccc23)c1[N+](=O)[O-]	5.64	< 4.70	Non-Toxic	–	–	–	–	–
Cc1noc([C@@H]2[C@@H](c3ccccc3)[C@H](C(F)(F)F)N[C@@]23C(=O)Nc2ccccc23)c1[N+](=O)[O-]	6.42	4.75	Non-Toxic	–	–	–	–	–
CC(=O)N1C(=O)[C@@]2(N[C@@H](C(F)(F)F)[C@H](c3ccccc3)[C@H]2c2onc(C)c2[N+](=O)[O-])c2ccccc21	5.49	< 4.70	Non-Toxic	< 5.00	–	–	–	–
Cc1noc([C@@H]2C(c3cccs3)[C@H](C(F)(F)F)N[C@@]23C(=O)Nc2ccccc23)c1[N+](=O)[O-] (single isomer, unassigned)	5.82	4.72	Non-Toxic	–	–	–	–	–
Cc1noc([C@@H]2[C@@H](c3ccccc3)[C@H](C(F)(F)F)N[C@@]23C(=O)Nc2ccc(F)cc23)c1[N+](=O)[O-]	6.68	4.81	Non-Toxic	–	–	–	–	–
Cc1noc([C@@H]2[C@@H](c3ccc(Br)cc3)[C@H](C(F)(F)F)N[C@@]23C(=O)Nc2ccccc23)c1[N+](=O)[O-]	5.52	4.77	Non-Toxic	–	–	–	–	–
Cc1noc([C@@H]2[C@@H](c3ccccc3)[C@H](C(F)(F)F)N[C@@]23C(=O)Nc2ccc(Br)cc23)c1[N+](=O)[O-]	6.26	4.79	Non-Toxic	–	–	–	–	–
Cc1noc([C@@H]2C(c3ccco3)[C@H](C(F)(F)F)N[C@@]23C(=O)Nc2ccccc23)c1[N+](=O)[O-] (single isomer, unassigned)	5.84	4.84	Non-Toxic	–	–	–	–	–
Cc1noc([C@@H]2[C@@H](c3ccccc3)[C@H](C(F)(F)F)N[C@@]23C(=O)Nc2ccc([N+](=O)[O-])cc23)c1[N+](=O)[O-]	5.32	< 4.70	Non-Toxic	–	–	–	–	–
Cc1noc([C@@H]2[C@@H](c3ccccc3)[C@H](C(F)(F)F)N[C@@]23C(=O)Nc2ccc(Cl)cc23)c1[N+](=O)[O-]	6.43	4.70	Non-Toxic	–	–	–	–	–
Cc1noc([C@@H]2[C@@H](c3ccccc3)[C@H](c3ccccc3)N[C@@]23C(=O)Nc2ccccc23)c1[N+](=O)[O-]	5.28	< 4.70	Non-Toxic	–	–	–	–	–
Cc1noc([C@@H]2[C@@H](c3cccc(F)c3)[C@H](C(F)(F)F)N[C@@]23C(=O)Nc2ccccc23)c1[N+](=O)[O-]	6.06	4.81	Non-Toxic	–	–	–	–	–
Cc1noc([C@@H]2[C@@H](c3cc(Cl)ccc3Cl)[C@H](C(F)(F)F)N[C@@]23C(=O)Nc2ccccc23)c1[N+](=O)[O-]	5.40	< 4.70	Non-Toxic	< 5.00	–	–	–	–
Cc1noc([C@@H]2[C@@H](c3ccccc3Cl)[C@H](C(F)(F)F)N[C@@]23C(=O)Nc2ccccc23)c1[N+](=O)[O-]	5.42	< 4.70	Non-Toxic	< 5.00	–	–	–	–
Cc1noc([C@@H]2[C@@H](c3ccccc3)[C@H](C(F)(F)F)N[C@@]23C(=O)N(C)c2ccccc23)c1[N+](=O)[O-]	5.45	< 4.70	Non-Toxic	< 5.00	–	–	–	–
